Reference: patent publication US9193687B2 (priority 2007, dated 2015)
Where “and” joins values, the source holds several entries; their conditions need not be identical. Identical values can stand only once. Counter-ions that a name gives are not always drawn. Like-named read-outs stand apart in the source and are kept apart here.

Columns and labels:
[1] = system: Human colon carcinoma HCT-116 cells; assay: cells
[2] = system: human mammary carcinoma MX-1 xenograft; assay: Antitumor therapeutic effect against MX-1 xenograft in nude mice; type: in vivo; settings: for Maximal body-weight loss (%): dose and schedule per compound as in Table 3
Description: Athymic nude mice bearing the nu/nu gene were obtained from NCI, Frederick, Md. and used for all human tumor xenografts. Male nude mice 6 weeks or older weighing 20-24 g or more were used. Compounds were administered via the tail vein for i.v. injection or infusion as described previously.^64 A typical formulation for chemotherapeutic studies for each drug was dissolved in DSMO to make a 25 mg/ml fresh solution, 0.4 ml of this solution was mixed with 0.3 ml of Tween 80, plus 1.3 ml to make 2 ml of 5 mg/ml solution. Bolus injection volume was 0.1-0.2 ml per mouse. Tumor volume was assessed by measuring length×width×height (or width) by using a caliper. For tumor-bearing nude mice during the course of the experiment, the body weight refers to total weight minus the weight of the tumor. All animal studies were conducted in accordance with the guidelines for the National Institute of Health Guide for the Care and Use of Animals and the protocol approved by the Institutional Animal Care and Use Committee.
The therapeutic effects of a drug against human tumor xenografts in nude mice, under the optimal therapeutic conditions but without any lethality due to drug toxicity, the following degrees of therapeutic effects are defined and calculated by the following formula: […]
where • T0 is the initial tumor size (in mm^3) at beginning of drug treatment; • Tc is tumor size of untreated control group on a given date; and • Tx is tumor size of the drug treated group on a given date.
[formula] • Tumor disappearance (complete remission or CR) is defined by the effect where • [Tx=0] for a period of time (in days) for a proportion of animals (NCR/N), where • N is the total number of animals in the group, and NCR is the number of mice in the group that achieved CR. • Tumor relapse is quantitatively calculated by • [The Day tumor relapsed (Drelp)—The Day CR achieved (DCR)] (Eq. 3) for a proportion of animals (Nrelp/N) where N is the total number of animals in the group, and Nrelp is the number of the mice in the group that relapsed. • The log cell kill (LCK) of the tumor tissue after a given chemotherapy that reached CR is estimated by: LCK=log [2^(Tumor remission in days/Tumor doubling time in days)] (Eq. 4)
Athymic nude mice bearing the nu/nu gene were used for human breast tumor MX-1 xenograft (FIGS. 3 and 4) and human brain glioma U87 GM xenograft (FIG. 5). Nude mice were obtained from National Cancer Institute, Frederick, Md. Male mice 6 weeks old or older weighing 22 g or more were used for experiments with subcutaneous tumor inoculation as described previously.^67 Drug was administrated via the tail vein by iv injection. Tumor volumes were assessed by measuring length×width×height (or width) by using caliper. Vehicle used was 20 μL DMSO in 180 μL saline. All animal studies were conducted in accordance with the guidelines of the U.S. National Institutes of Health Guide for the Care and Use of Animals and the protocol approved by the Institutional Animal Care and Use Committee.

[3] = system: Human mammary carcinoma (MX-1) tumor cells; assay: In vitro cytotoxicity, SRB assay, 72-hr incubation; settings: Homo sapiens, 72 h, read-out: Cytotoxicity IC50, MX-1
[4] = system: CCRF-CEM human lymphoblastic leukemia cells; assay: cells; settings: read-out: Cytotoxicity IC50, CCRF-CEM
CCRF-CEM/Taxol = assay: In vitro cytotoxicity, XTT assay, taxol-resistant subline; settings: Homo sapiens, CCRF-CEM, 72 h, read-out: Cytotoxicity IC50, CCRF-CEM/Taxol
prostate cancer (PC3) = assay: cells; settings: Homo sapiens, read-out: Cytotoxicity IC50, PC3
lung cancer H460 = assay: cells; settings: Homo sapiens, NCI-H460, read-out: Cytotoxicity IC50, H460
lung cancer H1299 = assay: cells; settings: Homo sapiens, NCI-H1299, read-out: Cytotoxicity IC50, H1299
[5] = HCT-116, 72 h, read-out: Cytotoxicity IC50, HCT-116
[6] = HCT-116, read-out: Cytotoxicity IC50, HCT-116

Structure (SMILES) | IC50 [1, 5] [µM] | Therapeutic effect: complete tumor remission (CR), mice with CR/total and day ([2]; i.v. injection, treatment from Day 8, dose and schedule per compound as in Table 3 (30-150 mg/kg)) | Maximal body-weight loss (%) ([2]; i.v. injection) | IC50 [3] [µM] | IC50 ([4]; 72 h) [µM] | IC50 (CCRF-CEM/Taxol) [µM] | Therapeutic effect: tumor growth suppression ([2]; 75 mg/kg, QDx8, i.v., 1/1 mouse) | IC50 (prostate cancer (PC3)) [µM] | IC50 (lung cancer H460) [µM] | IC50 (lung cancer H1299) [µM] | IC50 [1, 6] [µM] | IC50 [4] [µM]
COc1cc(NC(=O)Oc2ccc(N(CCCl)CCCl)cc2)cc(Nc2c3ccccc3nc3ccccc23)c1 [BO-1066, [3-(acridin-9-ylamino)-5-methoxyphenyl]carbamic acid 4-[bis(2-chloroethyl)amino]phenyl ester] | 1.71 | achieved complete tumor remission and 1/1 CR on D22 | 13 | 0.34 | 0.21 | 0.31 |  |  |  |  |  | 
Cc1cc(NC(=O)Nc2ccc(N(CCCl)CCCl)cc2)cc(Nc2c3ccccc3nc3ccccc23)c1 [BO-1079, 1-[3-(acridin-9-ylamino)-5-methylphenyl]-3-{4-[bis(2-chloroethyl)amino]phenyl}urea] | 0.8 |  | 9 | 0.53 | 0.14 | 0.38 | 1/1, >99% tumor |  |  |  |  | 
O=C(CCN1CCCCC1)Nc1ccc(NC(=O)Nc2ccc(N(CCCl)CCCl)cc2)cc1 [BO-2057] |  |  |  |  |  |  |  | 2.28 | 1.58 | 3.03 |  | 
CCN(CC)CCC(=O)Nc1ccc(NC(=O)Nc2ccc(N(CCCl)CCCl)cc2)cc1 [BO-2073, N-(4-(3-(4-(Bis(2-chloroethyl)amino)phenyl)ureido)-phenyl)-3-(diethylamino)-propanamide] |  |  |  |  |  |  |  | 2.47 | 1.83 | 10.3 | 2.09 | 0.3
O=C(CCN1CCOCC1)Nc1ccc(NC(=O)Nc2ccc(N(CCCl)CCCl)cc2)cc1 [BO-2074] |  |  |  |  |  |  |  | 9.74 | 3.95 | 15.2 | 7.02 | 1.06
O=C(CCN1CCCC1)Nc1ccc(NC(=O)Nc2ccc(N(CCCl)CCCl)cc2)cc1 [BO-2075] |  |  |  |  |  |  |  | 3.48 | 1.03 | 6.43 | 1.48 | 0.28
CN(C)CCC(=O)Nc1cccc(NC(=O)Nc2ccc(N(CCCl)CCCl)cc2)c1 [BO-2091, N-(3-(3-(4-(bis(2-chloroethyl)amino)-phenyl)ureido)phenyl)-3-(dimethylamino)-propanamide] |  |  |  |  |  |  |  | 13.5 | 16.8 | 8.99 | 3.28 | 0.52
O=C(CN1CCCCC1)Nc1ccc(NC(=O)Nc2ccc(N(CCCl)CCCl)cc2)cc1 [BO-2092, N-(4-(3-(4-(bis(2-chloroethyl)amino)phenyl)ureido)-phenyl)-2-(piperidin-1-yl)-acetamide] |  |  |  |  |  |  |  | 2.24 | 1.05 | 2.52 | 1.5 | 0.31
O=C(CN1CCCC1)Nc1ccc(NC(=O)Nc2ccc(N(CCCl)CCCl)cc2)cc1 [BO-2093] |  |  |  |  |  |  |  | 3.52 | 0.95 | 3.41 |  | 0.26
CCN(CC)CC(=O)Nc1ccc(NC(=O)Nc2ccc(N(CCCl)CCCl)cc2)cc1 [BO-2094, N-(4-(3-(4-(Bis(2-chloroethyl)amino)phenyl)ureido)-phenyl)-2-(diethylamino)-acetamide] |  |  |  |  |  |  |  | 3.57 | 0.93 | 3.43 | 1.7 | 
CN(C)CC(=O)Nc1ccc(NC(=O)Nc2ccc(N(CCCl)CCCl)cc2)cc1 [BO-2095] |  |  |  |  |  |  |  | 7.33 | 1.21 | 5.36 | 2.54 | 0.29
O=C(CN1CCOCC1)Nc1ccc(NC(=O)Nc2ccc(N(CCCl)CCCl)cc2)cc1 [BO-2096] |  |  |  |  |  |  |  | 16 | 4.74 | 18.6 | 6.67 | 1.13
O=C(CN1CCC(N2CCCCC2)CC1)Nc1ccc(NC(=O)Nc2ccc(N(CCCl)CCCl)cc2)cc1 [BO-2117] |  |  |  |  |  |  |  | 7.24 | 14.9 | 14.4 | 4.24 | 1.14
O=C(CCN1CCC(N2CCCCC2)CC1)Nc1ccc(NC(=O)Nc2ccc(N(CCCl)CCCl)cc2)cc1 [BO-2118] |  |  |  |  |  |  |  | 30 | 14.5 | 36 | 11.1 | 0.72
CCN(CC)CCC(=O)Nc1cccc(NC(=O)Nc2ccc(N(CCCl)CCCl)cc2)c1 [BO-2120] |  |  |  |  |  |  |  | 13 | 6.79 | 5.77 | 3.21 | 0.86
O=C(CCN1CCCC1)Nc1cccc(NC(=O)Nc2ccc(N(CCCl)CCCl)cc2)c1 [BO-2121] |  |  |  |  |  |  |  | 10.3 | 9.84 | 4.33 | 5.11 | 0.67
O=C(CCN1CCCCC1)Nc1cccc(NC(=O)Nc2ccc(N(CCCl)CCCl)cc2)c1 [BO-2147, N-(3-(3-(4-(Bis(2-chloroethyl)amino)phenyl)ureido)-phenyl)-3-(piperidin-1-yl)-propanamide] |  |  |  |  |  |  |  | 5.73 | 7.88 | 4.63 | 3.51 | 0.39
O=C(CCN1CCOCC1)Nc1cccc(NC(=O)Nc2ccc(N(CCCl)CCCl)cc2)c1 [BO-2148] |  |  |  |  |  |  |  | 35.5 | 38.5 | 15.9 | 16.8 | 3.1
O=C(CN1CCCC1)Nc1cccc(NC(=O)Nc2ccc(N(CCCl)CCCl)cc2)c1 [BO-2151, N-(3-(3-(4-(bis(2-chloroethyl)amino)phenyl)ureido)-phenyl)-2-(pyrrolidin-1-yl)acetamide] |  |  |  |  |  |  |  | 12.8 | 6.55 | 9.36 | 5.41 | 3.41
O=C(CN1CCOCC1)Nc1cccc(NC(=O)Nc2ccc(N(CCCl)CCCl)cc2)c1 [BO-2182] |  |  |  |  |  |  |  | 35.8 | 19.5 | 26.4 | 13 | 3.87
CCN(CC)CC(=O)Nc1cccc(NC(=O)Nc2ccc(N(CCCl)CCCl)cc2)c1 [BO-2183] |  |  |  |  |  |  |  | 13 | 5.67 | 11.7 | 4.62 | 2.01
O=C(CN1CCCCC1)Nc1cccc(NC(=O)Nc2ccc(N(CCCl)CCCl)cc2)c1 [BO-2184] |  |  |  |  |  |  |  | 10.1 | 5.62 | 8.55 | 7.5 | 1.35
O=C(CN1CCC(N2CCCCC2)CC1)Nc1cccc(NC(=O)Nc2ccc(N(CCCl)CCCl)cc2)c1 [BO-2188] |  |  |  |  |  |  |  | 25.9 | 12.3 | 12.8 | 6.15 | 30.4
CN(C)CC(=O)Nc1cccc(NC(=O)Nc2ccc(N(CCCl)CCCl)cc2)c1 [BO-2189, N-(3-(3-(4-(bis(2-chloroethyl)amino)phenyl)ureido)phenyl)-2-(dimethyl-amino)acetamide] |  |  |  |  |  |  |  | 19 | 8.74 | 10.6 | 9.56 | 0.78
O=C(CCN1CCC(N2CCCCC2)CC1)Nc1cccc(NC(=O)Nc2ccc(N(CCCl)CCCl)cc2)c1 [BO-2191, 3-([1,4′-bipiperidin]-1′-yl)-N-(3-(3-(4-(bis(2-chloroethyl)amino)phenyl)ureido)phenyl)propanamide hydrochloride] |  |  |  |  |  |  |  | 22.1 | 14.2 | 11 | 15.7 | 1.63
